What all share (format): functional, cell-based
In one test the test system is MCF7. Kind of test: Cytotoxicity against human MCF7 cells assessed as reduction in cell viability by CCK-8 assay.
For the next test, the system named is PANC-1. Put plainly: Cytotoxicity against human PANC-1 cells assessed as reduction in cell viability by CCK-8 assay. On the technique in general: Tetrazolium dyes change colour on reduction, which living cells bring about.
For the next test, the system named is HepG2. Put plainly: Cytotoxicity against human HepG2 cells assessed as reduction in cell viability by CCK-8 assay.
The next test concerns PC-3M. Kind of test: Cytotoxicity against human PC-3M cells assessed as reduction in cell viability by CCK-8 assay.
Another test relates to A549. Kind of test: Cytotoxicity against human A549 cells assessed as reduction in cell viability by CCK-8 assay.

Experimental findings from ChEMBL document CHEMBL5143734, “Seco-Lupane Triterpene Derivatives Induce Ferroptosis through GPX4/ACSL4 Axis and Target Cyclin D1 to Block the Cell Cycle” (J Med Chem, 2022) are described below.

Molecules are shown by their SMILES.

What is called IC50 is the concentration that inhibits the measured activity by half.

Take `C=C(C)[C@@H]1CC[C@]2(C(=O)OCCCCn3cc(CCN)c4ccccc43)CC[C@]3(C)[C@H](C[C@H]4OC(=O)C[C@@H](O)[C@]5(C)[C@@H]4[C@@]3(C)CC[C@H]5C(=C)C)[C@@H]12`: the IC50 in the test on MCF7 worked out at 11.7 µM; in the test on PANC-1 it was 8.73 µM; in the test with HepG2, 1.02 µM; in the test with PC-3M, 6.64 µM; with A549 it was 6.72 µM.
Turning to `C=C(C)[C@@H]1CC[C@]2(C(=O)OCCCCCn3cncn3)CC[C@]3(C)[C@H](C[C@@H](O)[C@@H]4[C@@]5(C)C(CC(=O)OC)OC(C)(C)C5CC[C@]43C)[C@@H]12` (stereo not given in full), the half-maximal inhibitory concentration (IC50) was found to be 81.6 µM in the test on MCF7; 90 µM with PANC-1; 37.2 µM in the test with HepG2; 32.3 µM in the test on PC-3M; 57.9 µM with A549.
For `C=C(C)[C@@H]1CC[C@]2(C(=O)OCCCCCCCCCCn3ccnc3C)CC[C@]3(C)[C@H](C[C@@H](O)[C@@H]4[C@@]5(C)C(CC(=O)OC)OC(C)(C)C5CC[C@]43C)[C@@H]12` (stereo not given in full), in that order: 19.4 µM, 7.95 µM, 4.91 µM, 10.3 µM and 19.5 µM.
As to `C=C(C)[C@@H]1CC[C@]2(C(=O)OCCCCCn3ccnc3CC)CC[C@]3(C)[C@H](C[C@@H](O)[C@@H]4[C@@]5(C)C(CC(=O)OC)OC(C)(C)C5CC[C@]43C)[C@@H]12` (stereo not given in full), the IC50 with MCF7 worked out at 45.5 µM; with PANC-1 it was 26.8 µM; in the test on HepG2, 14.1 µM; in the test on PC-3M it was 23.9 µM; with A549, 25.9 µM.
For `C=C(C)[C@@H]1CC[C@]2(C(=O)OCCCCCCCCCCn3ccnc3C)CC[C@]3(C)[C@H](C[C@H]4OC(=O)C[C@@H](O)[C@]5(C)[C@@H]4[C@@]3(C)CC[C@H]5C(=C)C)[C@@H]12`, the IC50 was 23.5 µM in the test with MCF7; 10.1 µM in the test on PANC-1; 3.02 µM in the test with HepG2; 8.63 µM in the test with PC-3M; 11.7 µM in the test on A549.
Take `C=C(C)[C@@H]1CC[C@]2(C(=O)OCCCCn3ccnc3)CC[C@]3(C)[C@H](C[C@H]4OC(=O)C[C@@H](O)[C@]5(C)[C@@H]4[C@@]3(C)CC[C@H]5C(=C)C)[C@@H]12`: the IC50 was 84.4 µM in the test on MCF7; 50.1 µM with PANC-1; 20.9 µM with HepG2; 28.2 µM in the test on PC-3M; 32.7 µM in the test with A549.
Consider `C=C(C)[C@@H]1CC[C@]2(C(=O)OCCCCCn3ccnc3)CC[C@]3(C)[C@H](C[C@H]4OC(=O)C[C@@H](O)[C@]5(C)[C@@H]4[C@@]3(C)CC[C@H]5C(=C)C)[C@@H]12`, for which the IC50 in the test with MCF7 turned out to be 45.6 µM; in the test with PANC-1 it was 32.3 µM; in the test with HepG2, 16.1 µM; in the test with PC-3M, 11.8 µM; with A549, 25.2 µM.
`C=C(C)[C@@H]1CC[C@]2(C(=O)OCCCCCCn3ccnc3CC)CC[C@]3(C)[C@H](C[C@@H](O)[C@@H]4[C@@]5(C)C(CC(=O)OC)OC(C)(C)C5CC[C@]43C)[C@@H]12` (stereo not given in full): the IC50 was 34.5 µM with MCF7; 18.5 µM with PANC-1; 16.9 µM with HepG2; 19.6 µM in the test with PC-3M; 24.1 µM in the test with A549.
The corresponding values for `C=C(C)[C@@H]1CC[C@]2(C(=O)OCCCCn3ccnc3CC)CC[C@]3(C)[C@H](C[C@@H](O)[C@@H]4[C@@]5(C)C(CC(=O)OC)OC(C)(C)C5CC[C@]43C)[C@@H]12` (stereo not given in full) are 40.3 µM, 31.5 µM, 15.7 µM, 25.9 µM and 28.5 µM.
For the compound `C=C(C)[C@@H]1CC[C@]2(C(=O)OCCCCCn3cc(CCN)c4ccccc43)CC[C@]3(C)[C@H](C[C@@H](O)[C@@H]4[C@@]5(C)C(CC(=O)OC)OC(C)(C)C5CC[C@]43C)[C@@H]12` (stereo not given in full), the IC50 in the test on MCF7 was determined as 18.1 µM; in the test with PANC-1, 5.81 µM; in the test with HepG2, 1.7 µM; in the test on PC-3M, 3.87 µM; with A549 it was 6.63 µM.
The corresponding values for `C=C(C)[C@@H]1CC[C@]2(C(=O)OCCCCCCCCCCn3cc(CCN)c4ccccc43)CC[C@]3(C)[C@H](C[C@H]4OC(=O)C[C@@H](O)[C@]5(C)[C@@H]4[C@@]3(C)CC[C@H]5C(=C)C)[C@@H]12` are 5.48 µM, 5.59 µM, 1.68 µM, 5.69 µM and 6.59 µM.
Turning to `C=C(C)[C@@H]1CC[C@]2(C(=O)OCCCn3ccnc3)CC[C@]3(C)[C@H](C[C@@H](O)[C@@H]4[C@@]5(C)C(CC(=O)OC)OC(C)(C)C5CC[C@]43C)[C@@H]12` (stereo not given in full), the IC50 in the test with MCF7 stood at 73.2 µM; in the test on PANC-1, 56.5 µM; with HepG2, 27.2 µM; with PC-3M, 35.6 µM; with A549, 34.8 µM.
The corresponding values for `C=C(C)[C@@H]1CC[C@]2(C(=O)O)CC[C@]3(C)[C@H](C[C@H]4OC(=O)C[C@@H](O)[C@]5(C)[C@@H]4[C@@]3(C)CC[C@H]5C(=C)C)[C@@H]12` are more than 200 µM, more than 200 µM, more than 200 µM, 134 µM and 145 µM.
For `C=C(C)[C@@H]1CC[C@]2(C(=O)OCCCCCn3cnc(C)c3)CC[C@]3(C)[C@H](C[C@H]4OC(=O)C[C@@H](O)[C@]5(C)[C@@H]4[C@@]3(C)CC[C@H]5C(=C)C)[C@@H]12`, in that order: 95.8 µM, 26.5 µM, 10.6 µM, 14.8 µM and 12.9 µM.
The corresponding values for `C=C(C)[C@@H]1CC[C@]2(C(=O)OCCCCCCn3ccnc3)CC[C@]3(C)[C@H](C[C@@H](O)[C@@H]4[C@@]5(C)C(CC(=O)OC)OC(C)(C)C5CC[C@]43C)[C@@H]12` (stereo not given in full) are 45.5 µM, 25.9 µM, 15.8 µM, 19.7 µM and 26.1 µM.
Regarding `C=C(C)[C@@H]1CC[C@]2(C(=O)OCCCn3cc(CCN)c4ccccc43)CC[C@]3(C)[C@H](C[C@@H](O)[C@@H]4[C@@]5(C)C(CC(=O)OC)OC(C)(C)C5CC[C@]43C)[C@@H]12` (stereo not given in full), the IC50 in the test on MCF7 was found to be 8.05 µM; in the test on PANC-1, 7.04 µM; in the test on HepG2, 2.51 µM; in the test on PC-3M, 7.6 µM; with A549 it was 7.67 µM.
On to `C=C(C)[C@@H]1CC[C@]2(C(=O)OCCCCCCCCCCn3cnc(C)c3)CC[C@]3(C)[C@H](C[C@H]4OC(=O)C[C@@H](O)[C@]5(C)[C@@H]4[C@@]3(C)CC[C@H]5C(=C)C)[C@@H]12`, for which the IC50 worked out at 35.8 µM in the test with MCF7; 9.92 µM in the test on PANC-1; 5.79 µM in the test with HepG2; 13.9 µM in the test with PC-3M; 16.7 µM in the test on A549.
Regarding `C=C(C)[C@@H]1CC[C@]2(C(=O)OCCCBr)CC[C@]3(C)[C@H](C[C@@H](O)[C@@H]4[C@@]5(C)C(CC(=O)OC)OC(C)(C)C5CC[C@]43C)[C@@H]12` (stereo not given in full), the IC50 was determined as 98.8 µM in the test with MCF7; 70.7 µM in the test with PANC-1; 28.6 µM with HepG2; 47.6 µM in the test on PC-3M; 41.2 µM in the test on A549.
